Experimental data reported in patent US20040057955A1, “Methods of inhibition of stenosis and/or sclerosis of the aortic valve” (priority 2003, published 2004).

Legend:
Assay type in all cases: in vivo, human
[1] = test system: patients with mild to moderate aortic stenosis; experiment: Lab measures (chemistry panel) in ramipril pilot study
Method: (§1) Clinical Protocol: This pilot study enrolled 8 patients with mild to moderate aortic stenosis, normal left ventricular (LV) function and no history of coronary artery disease. […] Patients then were placed on the ACE inhibitor ramipril, 2.5 mg qd for 2 weeks followed by up-titration at 2 week intervals to 2.5 mg bid, 5 mg bid and 7.5 mg bid. The study lasted 8 weeks. Vital signs were repeated weekly, chemistry panels every 2 weeks and echocardiograms every 4 weeks.

[2] = test system: patients with mild to moderate aortic stenosis; experiment: Echo measures (echocardiogram) in ramipril pilot study
Method: as §1

[3] = test system: patients with mild to moderate aortic stenosis; experiment: Clinical follow up (vital signs, symptoms) in ramipril pilot study; settings: for HR sitting / HR supine: in bpm (unit assumed); for DBP supine / SBP supine: in mmHg
Method: as §1

[4] = Week 1, ramipril dose 2.5 × 1, n = 8, mean±SD
[5] = Week 1, ramipril dose 2.5 × 1, n = 8
[6] = Week 2, ramipril dose 2.5 × 1, n = 8, mean±SD
[7] = Week 2, ramipril dose 2.5 × 1, n = 8
[8] = Week 3, ramipril dose 2.5 × 2, n = 8, mean±SD
[9] = Week 3, ramipril dose 2.5 × 2, n = 8
[10] = Week 4, ramipril dose 2.5 × 2, n = 8, mean±SD
[11] = Week 4, ramipril dose 2.5 × 2, n = 8
[12] = Week 5, ramipril dose 5 × 2, n = 8, mean±SD
[13] = Week 5, ramipril dose 5 × 2, n = 8
[14] = Week 6, ramipril dose 5 × 2, n = 8, mean±SD
[15] = Week 6, ramipril dose 5 × 2, n = 8
[16] = Week 7, ramipril dose 7.5 × 2, n = 8, mean±SD
[17] = Week 7, ramipril dose 7.5 × 2, n = 8
[18] = Week 8 (final), ramipril dose 7.5 × 2, n = 8, mean±SD
[19] = Week 8 (final), ramipril dose 7.5 × 2, n = 8, mean±SD, listed as Ramipril
[20] = Week 8, ramipril dose 7.5 × 2, n = 8
[21] = count among n = 8, Week 1, ramipril dose 2.5 × 1
[22] = count among n = 8, Week 2, ramipril dose 2.5 × 1
[23] = count among n = 8, Week 3, ramipril dose 2.5 × 2
[24] = count among n = 8, Week 4, ramipril dose 2.5 × 2
[25] = count among n = 8, Week 5, ramipril dose 5 × 2
[26] = count among n = 8, Week 6, ramipril dose 5 × 2
[27] = count among n = 8, Week 7, ramipril dose 7.5 × 2
[28] = count among n = 8, Week 8, ramipril dose 7.5 × 2

CCOC(=O)[C@H](CCc1ccccc1)N[C@@H](C)C(=O)N1[C@H](C(=O)O)C[C@@H]2CCC[C@@H]21 [ramipril]
Creatinine ([1]; Week 1, n = 8, mean±SD): 1.1 ± 0.3 mg/dL | Glucose ([1]; Week 1, n = 8, mean±SD): 97 ± 29 mg/dL | Potassium ([1]; Week 1, n = 8, mean±SD): 4.3 ± 0.3 mEq/L | Creatinine ([1]; Week 3, n = 8, mean±SD): 1.2 ± 0.4 mg/dL | Glucose ([1]; Week 3, n = 8, mean±SD): 96 ± 15 mg/dL | Potassium ([1]; Week 3, n = 8, mean±SD): 4.4 ± 0.4 mEq/L | Creatinine ([1]; Week 5, n = 8, mean±SD): 1.1 ± 0.3 mg/dL | Glucose ([1]; Week 5, n = 8, mean±SD): 91 ± 18 mg/dL | Potassium ([1]; Week 5, n = 8, mean±SD): 4.3 ± 0.5 mEq/L | Creatinine ([1]; Week 7, n = 8, mean±SD): 1.1 ± 0.3 mg/dL | Glucose ([1]; Week 7, n = 8, mean±SD): 91 ± 19 mg/dL | Potassium ([1]; Week 7, n = 8, mean±SD): 4.4 ± 0.5 mEq/L | Creatinine ([1]; final measurement, mean±SD): 1.1 ± 0.3 mg/dL | Glucose ([1]; final measurement, mean±SD): 91 ± 18 mg/dL | Potassium ([1]; final measurement, mean±SD): 4.3 ± 0.5 mEq/L | AS-Jet (aortic stenosis jet velocity) ([2]; Week4, n = 8, mean±SD): 2.8 ± 0.2 m/sec | Cardiac output ([2]; Week4, n = 8, mean±SD): 5.9 ± 1.5 L/min | LVEF ([2]; Week4, n = 8, mean±SD): 73 ± 4% | LVOT-velocity (left ventricular outflow tract velocity) ([2]; Week4, n = 8, mean±SD): 1.1 ± 0.1 m/sec | AS-Jet (aortic stenosis jet velocity) ([2]; Week8 (final), n = 8, mean±SD): 2.8±0.3 m/sec | Cardiac output ([2]; Week8 (final), n = 8, mean±SD): 5.7 ± 1.4 L/min | LVEF ([2]; Week8 (final), n = 8, mean±SD): 71±7% | LVOT-velocity (left ventricular outflow tract velocity) ([2]; Week8 (final), n = 8, mean±SD): 1.0±0.2 m/sec | DBP sitting [3, 4]: 67 ± 9 mmHg | SBP sitting [3, 4]: 109 ± 17 mmHg | HR sitting [3, 5]: 60 ± 9 | HR supine [3, 5]: 58 ± 5 | DBP supine [3, 5]: 62 ± 5 | SBP supine [3, 5]: 106 ± 15 | DBP sitting [3, 6]: 65 ± 8 mmHg | SBP sitting [3, 6]: 113 ± 16 mmHg | HR sitting [3, 7]: 61 ± 8 | HR supine [3, 7]: 63 ± 6 | DBP supine [3, 7]: 60 ± 9 | SBP supine [3, 7]: 110 ± 12 | DBP sitting [3, 8]: 65 ± 8 mmHg | SBP sitting [3, 8]: 111 ± 15 mmHg | HR sitting [3, 9]: 62 ± 8 | HR supine [3, 9]: 62 ± 11 | DBP supine [3, 9]: 60 ± 7 | SBP supine [3, 9]: 107 ± 14 | DBP sitting [3, 10]: 64 ± 5 mmHg | SBP sitting [3, 10]: 112 ± 16 mmHg | HR sitting [3, 11]: 65 ± 7 | HR supine [3, 11]: 64 ± 7 | DBP supine [3, 11]: 64 ± 8 | SBP supine [3, 11]: 111 ± 14 | DBP sitting [3, 12]: 67 ± 9 mmHg | SBP sitting [3, 12]: 116 ± 17 mmHg | HR sitting [3, 13]: 62 ± 6 | HR supine [3, 13]: 61 ± 7 | DBP supine [3, 13]: 69 ± 10 | SBP supine [3, 13]: 116 ± 17 | DBP sitting [3, 14]: 65 ± 4 mmHg | SBP sitting [3, 14]: 118 ± 20 mmHg | HR sitting [3, 15]: 61 ± 8 | HR supine [3, 15]: 61 ± 5 | DBP supine [3, 15]: 65 ± 6 | SBP supine [3, 15]: 114 ± 20 | DBP sitting [3, 16]: 70 ± 10 mmHg | SBP sitting [3, 16]: 121 ± 13 mmHg | HR sitting [3, 17]: 61 ± 4 | HR supine [3, 17]: 61 ± 6 | DBP supine [3, 17]: 72 ± 6 | SBP supine [3, 17]: 121 ± 13 | DBP sitting [3, 18]: 65±10 mmHg | SBP sitting [3, 18]: 114±14 mmHg | DBP sitting [3, 19]: 65 ± 10 mmHg | SBP sitting [3, 19]: 114 ± 14 mmHg | HR sitting ([3]; Week 8 (final), ramipril dose 7.5 × 2, n = 8): 62±3 | HR sitting ([3]; Week 8 (final), ramipril dose 7.5 × 2, n = 8, listed as Ramipril): 62 ± 3 | HR supine [3, 20]: 62 ± 3 | DBP supine [3, 20]: 63 ± 6 | SBP supine [3, 20]: 120 ± 15 | Cough [3, 21]: 0 | Ghest pain [3, 21]: 0 | Hyper-sensitivity [3, 21]: 0 | Light-headedness [3, 21]: 0 | Cough [3, 22]: 0 | Ghest pain [3, 22]: 0 | Hyper-sensitivity [3, 22]: 0 | Light-headedness [3, 22]: 0 | Cough [3, 23]: 0 | Ghest pain [3, 23]: 0 | Hyper-sensitivity [3, 23]: 0 | Light-headedness [3, 23]: 0 | Cough [3, 24]: 0 | Ghest pain [3, 24]: 0 | Hyper-sensitivity [3, 24]: 0 | Light-headedness [3, 24]: 0 | Cough [3, 25]: 0 | Ghest pain [3, 25]: 0 | Hyper-sensitivity [3, 25]: 0 | Light-headedness [3, 25]: 0 | Cough [3, 26]: 2 | Ghest pain [3, 26]: 1 | Hyper-sensitivity [3, 26]: 0 | Light-headedness [3, 26]: 0 | Cough [3, 27]: 0 | Ghest pain [3, 27]: 0 | Hyper-sensitivity [3, 27]: 0 | Light-headedness [3, 27]: 0 | Cough [3, 28]: 1 | Ghest pain [3, 28]: 1 | Hyper-sensitivity [3, 28]: 0 | Light-headedness [3, 28]: 1
